# Reference: patent publication US12358904B2, “Inhibitors of TYK2” (Atomwise Inc., priority 2023, dated 2025)
# Experiments:
# IL-6/pSTAT3 = test: IL-6 induced pSTAT3 assay in TF-1 cells; assay type: cell-based; settings: Homo sapiens, read-out: Cellular selectivity (IL-6/pSTAT3)
# Method: The following example describes the IL-6 induced pSTAT3 assay used to determine the cellular selectivity (IL-6/pSTAT3) of the TYK2 inhibitors.
# TF-1 (ATCC®, CRL-2003™) cells were cultured in RPMI 1640 Medium, with GlutaMAX™ Supplement, HEPES for Cell Culture (Life Technologies, 72400047), 10% Fetal Bovine Serum (Life Technologies, 26400044), 2 ng/mL human recombinant GM-CSF (Life Technologies, PHC2013), 1 mM Sodium pyruvate (Life Technologies, 11360039), 1% MEM NEAA (Life Technologies, 11140-035), 1% Penicillin/Streptomycin (Life Technologies, 15140-122).
# TF-1 (70×10^6) cells were starved overnight in T01 50 flasks (Opti-MEM™ I Reduced Serum Medium, no phenol red (Life Technologies, 11058-021), 1 mM Na pyruvate (Life Technologies, 11360039), 1% MEM NEAA (Life Technologies, 11140-035), and 1% Penicillin/Streptomycin (Life Technologies, 15140-122)) then seeded into 96-well TPP plates (150 000 cell/well) and incubated with test compounds (Final Concentration [nM] 10000-0.05) for 30 minutes at 37° C. […] Stimulation was terminated by addition of lysis buffer (MSD K150SVD) and pSTAT3 detection was measured with Phospho-STAT3 (Tyr705) Kit MSD K150SVD)) according to manufacturer's instruction. Briefly, cell lysates were added to pre-blocked plates, sealed, and shake for 1 hour at room temperature. Plates were then washed and incubated with detection antibody for 1 hour at room temperature. After washing, Read Buffer was added, and plates were read on MSD instrument (Model 1300 MSD Quickplex SQ 120).
# GM-CSF/pSTAT5 = test: GM-CSF induced pSTAT5 assay in CellSensor irf1-bla TF-1 cells; assay type: cell-based; settings: Homo sapiens, GM-CSF 1 ng/mL, read-out: Cellular selectivity (GM-CSF induced pSTAT5)
# Method: The CellSensor irf1-bla TF-1 cell line (LifeTechnologies, K1657) was cultured in RPMI 1640 Medium (Invitrogen 72400-047), 10% Fetal Bovine Serum (Invitrogen, 26400044), 1 mM Sodium pyruvate (Life Technologies, 11360039), 1% MEM NEAA (Life Technologies, 11140-035), 2 ng/ml of human recombinant GM-CSF (Fisher, PHC2015), 1% Penicillin/Streptomycin (Life Technologies, 15140-122) and 5 μg/ml of Blasticidin (ThermoFisher, A1113903).
# The cell line was seeded in a T75 flask at 13×10^6 cells/50 mL in starvation medium (Opti-MEM™ I Reduced Serum Medium, no phenol red (Life Technologies, 11058-021), 1 mM Na pyruvate (Life Technologies, 11360039), 1% MEM NEAA (Life Technologies, 11140-035), and 1% Penicillin/Streptomycin (Life Technologies, 15140-122)) for 16 hours at 37° C. under 5% CO2 the day before the assay.
# For the assay, CellSensor irf1-bla TF-1 cells were seeded at 30 000 cells/32 μL (starvation medium)/well in a 384-well plate.
# Compounds were added on the cells in 4 μL (starvation medium)/well at 10× the final concentration. They were incubated for 30 minutes at 37° C.
# Human recombinant carrier-free GM-CSF (ThermoFisher, ref PHC2015) was added to the wells in 4 μL (starvation medium)/well at 10×. The final concentration was 1 ng/mL. Control wells without GM-CSF treatment were added. Plates were incubated for 5 hours at 37° C.
# 6× LiveBlazer-FRET substrate (Invitrogen, K1085) was added to the wells at 8 μL/well. The substrate was prepared shortly before use by mixing 6 μL of solution A and 60 μL of solution B to 934 μL of solution C. Plates were incubated for 2.5 hours at room temperature in the dark. The plates were read on an Envision (Perkin Elmer) with an excitation at a wavelength of 409 nm and two wavelengths for the emission 520 nm and 450 nm. The ratio between the […] emission was used to calculate the IC50s.
# The IC50 for the inhibition of pSTAT5 was calculated with the Xlfit software using the 4 Parameter Logistic Model or Sigmoidal Dose-Response Model (model 205).
# IL-12/pSTAT4 = test: IL-12 induced pSTAT4 assay in NK-92 cells; assay type: cell-based; settings: Homo sapiens, NK92, IL-12 stimulation, read-out: Cellular potency (IL-12/pSTAT4)
# Procedure, shortened: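 Overnight-starved NK-92 cells (20K/well) pre-incubated with compounds (1000 to 0.05 nM final) 30 min at 37 °C, then stimulated with IL-12 (10 ng/ml) for 30 min at 37 °C. Lysates assayed for pSTAT4 (Tyr693) by MSD electrochemiluminescence.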
# TYK2-JH2 = target: T1, TYK2-JH2 (Homo sapiens, UniProt P29597); test: TYK2-JH2 HTRF binding assay (ligand efficiency); settings: calculated from IC50 of the TYK-JH2 binding assay (Equation 1)
# T1 construct: TYK JH2 enzyme mix (ChemPartnec CP20210818A-BV); purchased ChemPartner CP20210818A-BV
# Procedure, shortened: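 His-tagged TYK2 JH2 (0.5 nM) preincubated 10 min at RT with compound (0.1–0.000005 μM) in 20 mM HEPES pH 7.5, 10 mM MgCl2, 0.01% Triton X-100, 1 mM DTT; then 35 nM tracer plus anti-6HIS Tb cryptate, 60 min RT. TR-FRET read (Ex340/Em495/520); IC50 converted to ligand efficiency.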
# [1] = Brain exposure pharmacokinetic study in mice; assay type: in vivo, mouse; settings: male C57BL/6 mice, oral gavage 5 mg/kg, plasma
# Method: The brain exposure of 18 was evaluated in male C57BL/6 mice after oral gavage administration at 5 mg/kg. The formulation was 10% DMSO+40% PEG400 in saline. Mice were provided free access to food and water without fasting. Terminal sample collection of plasma and brain tissue were collected at […], 0.25, 0.5, 1, 2, and 4 hours post-dose with n=3 at each timepoint.
# (§1) For both rat and mouse studies, brain tissue was washed with 3 volumes of saline prior to homogenization. Brain tissue was homogenized with 3 volumes (v/w) of phosphate buffered saline. Plasma, brain homogenate, and CSF samples (rat only) were analyzed by LC-MS/MS and the concentration of test compound at each time point was determined by linear regression.
# (§2) Pharmacokinetic parameters were calculated from the plasma, brain, and CSF concentrations by non-compartmental modeling using WinNonlin 8.2.
# [2] = Brain exposure pharmacokinetic study in rats; assay type: in vivo, rat; settings: male Sprague Dawley rats, oral gavage 10 mg/kg, plasma, CSF
# Method: The brain exposure of exemplary compounds, e.g., 1, 2, and 4 were evaluated in male Sprague Dawley rats after oral gavage administration at 10 mg/kg. The formulation was 5% DMSO+10% PEG400 in saline. Rats were fasted overnight with food returned 4 hours post-dose. CSF was collected by direct needle puncture into the cisterna magna.
# as §1, §2
# T1 sequence (P29597 589-875 limits assumed): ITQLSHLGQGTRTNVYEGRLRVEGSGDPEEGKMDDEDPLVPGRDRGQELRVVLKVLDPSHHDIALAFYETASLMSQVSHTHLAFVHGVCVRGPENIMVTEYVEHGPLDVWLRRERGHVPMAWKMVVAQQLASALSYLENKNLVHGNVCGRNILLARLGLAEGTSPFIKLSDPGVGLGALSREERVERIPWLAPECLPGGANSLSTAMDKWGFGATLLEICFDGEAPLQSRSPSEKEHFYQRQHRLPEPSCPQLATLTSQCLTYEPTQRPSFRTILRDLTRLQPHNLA
Structure (SMILES),IC50 (IL-6/pSTAT3),IC50 (GM-CSF/pSTAT5),IC50 (IL-12/pSTAT4),Ligand Efficiency (TYK2-JH2),"Brain Kpu, u [1]","Brain Kpu, u [2]"
"Cc1cccc(Nc2cc(Nc3ncccc3S(C)(=O)=O)ncn2)n1 [Compound 18, N^4-(6-methylpyridin-2-yl)-N^6-(3-(methylsulfonyl)99yridine-2-yl) pyrimidine-4,6-diamine]",< 4 µM,> 10 µM,< 0.1 µM,††† (†††: >0.39),††† (††† >0.2u),
"C[C@@H](c1ccc(Nc2cc(Nc3ncccc3S(C)(=O)=O)ncn2)nc1)N1CC2(COC2)C1 [Compound 1, (S)—N^4-(5-(1-(2-oxa-6-azaspiro[3.3]heptan-6-yl)ethyl)73yridine-2-yl)-N^6-(3-(methylsulfonyl)73yridine-2-yl)pyrimidine-4,6-diamine]",> 10 µM,4 to 10 µM,< 0.1 µM,††† (†††: >0.39),,†† (†† 0.1-0.2u)
"C[C@@H](c1ccc(Nc2cc(Nc3ncc(F)cc3S(C)(=O)=O)ncn2)nc1)N1CC2(COC2)C1 [Compound 2, (S)—N^4-(5-(1-(2-oxa-6-azaspiro[3.3]heptan-6-yl)ethyl)75yridine-2-yl)-N^6-(5-fluoro-3-(methylsulfonyl)75yridine-2-yl)pyrimidine-4,6-diamine]",> 10 µM,> 10 µM,< 0.1 µM,††† (†††: >0.39),,† († <0.1u)
"C[C@@H](c1ccc(Nc2cc(Nc3ncccc3S(C)(=O)=O)ncn2)nc1)N(C)C [Compound 4, (S)—N^4-(5-(1-(dimethylamino)ethyl)79yridine-2-yl)-N^6-(3-(methylsulfonyl) 79yridine-2-yl) pyrimidine-4,6-diamine]",4 to 10 µM,> 10 µM,< 0.1 µM,††† (†††: >0.39),,††† (††† >0.2u)
